Laboratory results reported in publication PMC4335062, “Data-Driven Prediction and Design of bZIP Coiled-Coil Interactions” (PLoS Computational Biology, 2015).
Like-named read-outs stand apart in the source and are kept apart here. Where no end group is shown, it is not given here.

Columns and labels:
Assay in all cases: Direct-binding FRET assay
ATF2 = target: T1, ATF2 (Homo sapiens, UniProt P15336); details: read-out: Kd
T1 construct: made in house
T1 sequence (P15336 352-415 limits assumed): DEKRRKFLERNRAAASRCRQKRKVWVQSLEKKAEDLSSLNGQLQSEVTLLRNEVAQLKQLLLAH
Procedure: (§1) The direct binding assay was performed manually in 384-well plates and is similar to a previously described assay. Wells were filled with 20 μL of 1 mM TCEP-HCl. A 4 μM stock of acceptor protein was made fresh in 1 mM TCEP-HCl, and 20 μL was titrated in 2-fold dilutions over the wells. […] The direct-binding FRET data were fit as previously described. Briefly, the Kd of the designed peptide homodimer was experimentally determined and used with previously determined target homodimer Kd values to determine the heterodimer Kd. The homodimer Kd values used for the human bZIPs were from; experiments done by […] et al. used the same protein constructs for the human bZIP proteins, the same buffer conditions, and the same assay. The fitting used a system of ordinary differential equations to describe the concentrations of homo and heterodimers formed by the donor (D) and acceptor (A) as a function of the heterodimer Kd. MATLAB was used to simulate the binding experiment for different Kd values, and the value that gave the best agreement between simulation and experiment was assigned. A minimum 15% change in the donor fluorescence upon titrating the acceptor peptide from 0 to 1000 nM was required for a fit to be attempted. If this minimum was not met, the interaction was classified as “NS” for no signal change. […] These interactions were marked “AS” to indicate anomalous signal. We attributed this to interactions between the peptides, the dyes and the walls of the assay plates at low concentrations. These curves could not be fit, given their unusual shapes at low concentrations of acceptor. For such curves, we removed the first five points and re-fit the data. […] One example of this is increasing concentrations of acceptor causing an increase in donor fluorescence.

ATF5 = target: T2, ATF5 (Homo sapiens, UniProt Q9Y2D1); details: mean or single, read-out: Kd
T2 construct: made in house
T2 sequence (Q9Y2D1 208-271 limits assumed): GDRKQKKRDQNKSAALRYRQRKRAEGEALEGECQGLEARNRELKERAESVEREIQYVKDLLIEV
Procedure: as §1

BATF2 = target: T3, BATF2 (Homo sapiens, UniProt Q8N1L9); details: mean or single, read-out: Kd
T3 construct: made in house
T3 sequence (Q8N1L9 17-80 limits assumed): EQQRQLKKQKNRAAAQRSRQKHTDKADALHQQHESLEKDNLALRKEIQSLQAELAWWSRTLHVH
Procedure: as §1

CREB3 = target: T4, CREB3 (Homo sapiens, UniProt O43889); details: mean or single, read-out: Kd
T4 construct: made in house
T4 sequence (O43889 150-213 limits assumed): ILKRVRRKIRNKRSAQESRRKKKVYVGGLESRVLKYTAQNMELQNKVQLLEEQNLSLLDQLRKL
Procedure: as §1

CREB3L3 = target: T5, CREB3L3 (Homo sapiens, UniProt Q68CJ9); details: mean or single, read-out: Kd
T5 construct: made in house
T5 sequence (Q68CJ9 243-306 limits assumed): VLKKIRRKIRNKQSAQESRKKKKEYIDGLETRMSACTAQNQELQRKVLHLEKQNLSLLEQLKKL
Procedure: as §1

CREBZF = target: T6, CREBZF (Homo sapiens, UniProt Q9NS37); details: read-out: Kd
T6 construct: made in house
T6 sequence (Q9NS37 204-267 limits assumed): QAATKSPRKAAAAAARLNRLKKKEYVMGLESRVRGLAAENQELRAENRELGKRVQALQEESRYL
Procedure: as §1

DBP = target: T7, DBP (Homo sapiens, UniProt Q10586); details: read-out: Kd
T7 construct: made in house
T7 sequence (Q10586 255-318 limits assumed): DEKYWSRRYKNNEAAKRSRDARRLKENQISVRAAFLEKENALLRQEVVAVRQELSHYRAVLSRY
Procedure: as §1

HLF = target: T8, HLF (Homo sapiens, UniProt Q16534); details: read-out: Kd
T8 construct: made in house
T8 sequence (Q16534 225-288 limits assumed): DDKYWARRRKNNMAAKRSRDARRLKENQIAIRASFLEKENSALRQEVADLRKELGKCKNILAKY
Procedure: as §1

NFE2L2 = target: T9, NFE2L2 (Homo sapiens, UniProt Q16236); details: read-out: Kd
T9 construct: made in house
T9 sequence (Q16236 497-560 limits assumed): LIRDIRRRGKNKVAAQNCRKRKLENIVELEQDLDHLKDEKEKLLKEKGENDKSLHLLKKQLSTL
Procedure: as §1

NFIL3 = target: T10, NFIL3 (Homo sapiens, UniProt Q16649); details: read-out: Kd
T10 construct: made in house
T10 sequence (Q16649 73-136 limits assumed): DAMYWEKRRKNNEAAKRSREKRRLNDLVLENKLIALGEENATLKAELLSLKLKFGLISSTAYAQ
Procedure: as §1

[1] = 4°C, C-terminal fluorescein design as donor, TAMRA target titrated
[2] = 4°C, C-terminal rhodamine design, mean or single
[3] = 4°C, N-terminal rhodamine design, mean or single
[4] = 23°C, C-terminal fluorescein design as donor, TAMRA target titrated
[5] = 23°C, C-terminal rhodamine design, mean or single
[6] = 23°C, N-terminal rhodamine design, mean or single
[7] = 37°C, C-terminal fluorescein design as donor, TAMRA target titrated
[8] = 37°C, C-terminal rhodamine design, mean or single
[9] = 37°C, N-terminal rhodamine design, mean or single
[10] = 4°C, C-terminal rhodamine design
[11] = 4°C, N-terminal rhodamine design
[12] = 23°C, C-terminal rhodamine design
[13] = 23°C, N-terminal rhodamine design
[14] = 37°C, C-terminal rhodamine design
[15] = 37°C, N-terminal rhodamine design

- Kd (ATF2; [1]): > 1000 nM
- Kd (ATF2; [2]): > 1000 nM
- Kd (ATF2; [3]): > 1000 nM
- Kd (ATF2; [4]): > 1000 nM
- Kd (ATF2; [5]): > 1000 nM
- Kd (ATF2; [6]): > 1000 nM
- Kd (ATF2; [7]): > 1000 nM
- Kd (ATF2; [8]): > 1000 nM
- Kd (ATF2; [9]): > 1000 nM
- Kd (ATF5; [10]): > 1000 nM
- Kd (ATF5; [11]): > 1000 nM
- Kd (ATF5; [12]): > 1000 nM
- Kd (ATF5; [13]): > 1000 nM
- Kd (ATF5; [14]): > 1000 nM
- Kd (ATF5; [15]): > 1000 nM
- Kd (BATF2; [10]): < 200 nM
- Kd (BATF2; [11]): > 1000 nM
- Kd (BATF2; [12]): > 1000 nM
- Kd (BATF2; [13]): > 1000 nM
- Kd (BATF2; [14]): > 1000 nM
- Kd (BATF2; [15]): > 1000 nM
- Kd (CREB3; [10]): > 1000 nM
- Kd (CREB3; [11]): > 1000 nM
- Kd (CREB3; [12]): > 1000 nM
- Kd (CREB3; [13]): > 1000 nM
- Kd (CREB3; [14]): > 1000 nM
- Kd (CREB3; [15]): > 1000 nM
- Kd (CREB3L3; [10]): > 1000 nM
- Kd (CREB3L3; [11]): > 1000 nM
- Kd (CREB3L3; [12]): > 1000 nM
- Kd (CREB3L3; [13]): > 1000 nM
- Kd (CREB3L3; [14]): > 1000 nM
- Kd (CREB3L3; [15]): > 1000 nM
- Kd (CREBZF; [1]): > 1000 nM
- Kd (CREBZF; [3]): > 1000 nM
- Kd (CREBZF; [4]): > 1000 nM
- Kd (CREBZF; [6]): > 1000 nM
- Kd (CREBZF; [7]): > 1000 nM
- Kd (CREBZF; [8]): > 1000 nM
- Kd (CREBZF; 37°C, C-terminal rhodamine design, repeat 1): > 1000 nM
- Kd (CREBZF; 37°C, C-terminal rhodamine design, repeat 2): > 1000 nM
- Kd (CREBZF; 37°C, C-terminal rhodamine design, repeat 3): > 1000 nM
- Kd (CREBZF; [9]): > 1000 nM
- Kd (DBP; [1]): > 1000 nM
- Kd (DBP; [2]): > 1000 nM
- Kd (DBP; [3]): > 1000 nM
- Kd (DBP; [4]): > 1000 nM
- Kd (DBP; [5]): > 1000 nM
- Kd (DBP; [6]): > 1000 nM
- Kd (DBP; [7]): > 1000 nM
- Kd (DBP; [8]): > 1000 nM
- Kd (DBP; [9]): > 1000 nM
- Kd (HLF; [1]): > 1000 nM
- Kd (HLF; [2]): > 1000 nM
- Kd (HLF; [3]): > 1000 nM
- Kd (HLF; [4]): > 1000 nM
- Kd (HLF; [5]): > 1000 nM
- Kd (HLF; [6]): > 1000 nM
- Kd (HLF; [7]): > 1000 nM
- Kd (HLF; [8]): > 1000 nM
- Kd (HLF; [9]): > 1000 nM
- Kd (NFE2L2; [1]): > 1000 nM
- Kd (NFE2L2; [2]): > 1000 nM
- Kd (NFE2L2; [3]): > 1000 nM
- Kd (NFE2L2; [4]): > 1000 nM
- Kd (NFE2L2; [5]): > 1000 nM
- Kd (NFE2L2; [6]): > 1000 nM
- Kd (NFE2L2; [7]): > 1000 nM
- Kd (NFE2L2; [8]): > 1000 nM
- Kd (NFE2L2; [9]): > 1000 nM
- Kd (NFIL3; [1]): > 1000 nM
- Kd (NFIL3; [2]): > 1000 nM
- Kd (NFIL3; [3]): > 1000 nM
- Kd (NFIL3; [4]): > 1000 nM
- Kd (NFIL3; [5]): > 1000 nM
- Kd (NFIL3; [6]): > 1000 nM
- Kd (NFIL3; [7]): > 1000 nM
- Kd (NFIL3; [8]): > 1000 nM
- Kd (NFIL3; [9]): > 1000 nM
Sequence: EREAQLENRVAHLKEKNQELKAQNLHLKEALSEAQNRNQELKNDA [XBP1-d1]
